Experimental data: ChEMBL document CHEMBL4507256 (2021)

Assays:
[1] = target: Adrenergic receptor alpha-2 (Homo sapiens) (UniProt P08913+P18825+P18089); assay: alpha 2 CEREP ligand profiling; format: protein assay; details: Compound concentration 10.0 uM
[2] = target: Type-2 angiotensin II receptor (Homo sapiens) (UniProt P50052); assay: AT2 (h) CEREP ligand profiling; details: Compound concentration 10.0 uM
[3] = target: Translocator protein (Rattus norvegicus) (UniProt P16257); assay: BZD-peripheral CEREP ligand profiling; details: Compound concentration 10.0 uM
Chain of Translocator protein (Rattus norvegicus) (P16257 whole entry, looked up): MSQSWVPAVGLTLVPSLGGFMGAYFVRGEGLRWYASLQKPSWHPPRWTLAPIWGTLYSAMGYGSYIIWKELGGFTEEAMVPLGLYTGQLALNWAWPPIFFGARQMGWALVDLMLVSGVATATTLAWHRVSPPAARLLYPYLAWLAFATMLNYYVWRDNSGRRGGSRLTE

[4] = target: B2 bradykinin receptor (Homo sapiens) (UniProt P30411); assay: B2 (h) CEREP ligand profiling; details: Compound concentration 10.0 uM
[5] = target: D(2) dopamine receptor (Homo sapiens) (UniProt P14416); assay: D2S (h) CEREP ligand profiling; details: Compound concentration 10.0 uM
[6] = GABA CEREP ligand profiling; details: Compound concentration 10.0 uM
[7] = target: Melatonin receptor type 1A (Homo sapiens) (UniProt P48039); assay: MT1 (h) CEREP ligand profiling; details: Compound concentration 10.0 uM
[8] = target: Neuromedin-K receptor (Homo sapiens) (UniProt P29371); assay: NK3 (h) CEREP ligand profiling; details: Compound concentration 10.0 uM
[9] = target: 5-hydroxytryptamine receptor 5A (Homo sapiens) (UniProt P47898); assay: 5-HT5A (h) CEREP ligand profiling; details: Compound concentration 10.0 uM
[10] = target: 5-hydroxytryptamine receptor 7 (Homo sapiens) (UniProt P34969); assay: 5-HT7 (h) CEREP ligand profiling; details: Compound concentration 10.0 uM
[11] = target: Somatostatin receptor (Homo sapiens) (UniProt P35346+P30874+P31391+P30872+P32745); assay: sst CEREP ligand profiling; format: protein assay; details: Compound concentration 10.0 uM
[12] = target: Vasopressin V1a receptor (Homo sapiens) (UniProt P37288); assay: V1a (h) CEREP ligand profiling; details: Compound concentration 10.0 uM
[13] = target: Sodium-dependent noradrenaline transporter (Homo sapiens) (UniProt P23975); assay: NE transporter CEREP ligand profiling; details: Compound concentration 10.0 uM
[14] = target: Adenosine receptor A2a (Homo sapiens) (UniProt P29274); assay: A2A (h) CEREP ligand profiling; details: Compound concentration 10.0 uM
[15] = target: Adrenergic receptor alpha-1 (Homo sapiens) (UniProt P35348+P25100+P35368); assay: alpha1 CEREP ligand profiling; format: protein assay; details: Compound concentration 10.0 uM
[16] = target: Type-1 angiotensin II receptor (Homo sapiens) (UniProt P30556); assay: AT1 (h) CEREP ligand profiling; details: Compound concentration 10.0 uM
[17] = target: Cholecystokinin receptor type A (Homo sapiens) (UniProt P32238); assay: CCKA (h) CEREP ligand profiling; details: Compound concentration 10.0 uM
[18] = target: D(1B) dopamine receptor (Homo sapiens) (UniProt P21918); assay: D5 (h) CEREP ligand profiling; details: Compound concentration 10.0 uM
[19] = target: Galanin receptor type 1 (Homo sapiens) (UniProt P47211); assay: GAL1 (h) CEREP ligand profiling; details: Compound concentration 10.0 uM
[20] = target: Tumor necrosis factor (Homo sapiens) (UniProt P01375); assay: TNF-alpha (h) CEREP ligand profiling; details: Compound concentration 10.0 uM
[21] = target: Melanocortin receptor 4 (Homo sapiens) (UniProt P32245); assay: MC4 (h) CEREP ligand profiling; details: Compound concentration 10.0 uM
[22] = target: T1, Muscarinic acetylcholine receptor M1 (Homo sapiens) (UniProt P11229); assay: M1 (h) CEREP ligand profiling; details: Compound concentration 10.0 uM
T1 sequence (whole entry): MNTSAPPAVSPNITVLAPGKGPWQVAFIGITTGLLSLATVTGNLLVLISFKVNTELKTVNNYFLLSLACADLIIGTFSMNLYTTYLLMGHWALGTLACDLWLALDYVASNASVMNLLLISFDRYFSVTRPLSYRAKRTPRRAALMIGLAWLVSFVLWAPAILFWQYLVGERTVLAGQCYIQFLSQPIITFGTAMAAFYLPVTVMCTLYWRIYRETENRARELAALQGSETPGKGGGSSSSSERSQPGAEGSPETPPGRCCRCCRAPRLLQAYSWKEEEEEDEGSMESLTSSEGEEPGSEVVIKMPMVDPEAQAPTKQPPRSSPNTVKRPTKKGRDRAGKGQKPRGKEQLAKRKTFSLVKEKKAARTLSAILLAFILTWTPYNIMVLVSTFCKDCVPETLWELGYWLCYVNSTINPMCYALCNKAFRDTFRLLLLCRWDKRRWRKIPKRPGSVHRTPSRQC

[23] = target: Neuropeptide Y receptor type 1 (Homo sapiens) (UniProt P25929); assay: Y1 (h) CEREP ligand profiling; details: Compound concentration 10.0 uM
[24] = target: Nociceptin receptor (Homo sapiens) (UniProt P41146); assay: ORL1 (h) (NOP) CEREP ligand profiling; details: Compound concentration 10.0 uM
[25] = target: P2X receptor (Rattus norvegicus) (UniProt P51579+P49653+P51578+Q64663+P47824+P51577+P49654); assay: P2X CEREP ligand profiling; format: protein assay; details: Compound concentration 10.0 uM
[26] = target: 5-hydroxytryptamine receptor 2A (Homo sapiens) (UniProt P28223); assay: 5-HT2A (h) CEREP ligand profiling; details: Compound concentration 10.0 uM
[27] = target: Vasoactive intestinal polypeptide receptor 1 (Homo sapiens) (UniProt P32241); assay: VIP1 (h) CEREP ligand profiling; details: Compound concentration 10.0 uM
[28] = target: Sodium-dependent dopamine transporter (Homo sapiens) (UniProt Q01959); assay: DA transporter(h) CEREP ligand profiling; details: Compound concentration 10.0 uM
[29] = target: Cyclin-dependent kinase 11A (Homo sapiens) (UniProt Q9UQ88); details: Compound concentration 1000.0 nM
[30] = target: Focal adhesion kinase 1 (Homo sapiens) (UniProt Q05397); details: Compound concentration 1000.0 nM
Chain of Focal adhesion kinase 1 (Homo sapiens) (Q05397 2-1052 limits assumed): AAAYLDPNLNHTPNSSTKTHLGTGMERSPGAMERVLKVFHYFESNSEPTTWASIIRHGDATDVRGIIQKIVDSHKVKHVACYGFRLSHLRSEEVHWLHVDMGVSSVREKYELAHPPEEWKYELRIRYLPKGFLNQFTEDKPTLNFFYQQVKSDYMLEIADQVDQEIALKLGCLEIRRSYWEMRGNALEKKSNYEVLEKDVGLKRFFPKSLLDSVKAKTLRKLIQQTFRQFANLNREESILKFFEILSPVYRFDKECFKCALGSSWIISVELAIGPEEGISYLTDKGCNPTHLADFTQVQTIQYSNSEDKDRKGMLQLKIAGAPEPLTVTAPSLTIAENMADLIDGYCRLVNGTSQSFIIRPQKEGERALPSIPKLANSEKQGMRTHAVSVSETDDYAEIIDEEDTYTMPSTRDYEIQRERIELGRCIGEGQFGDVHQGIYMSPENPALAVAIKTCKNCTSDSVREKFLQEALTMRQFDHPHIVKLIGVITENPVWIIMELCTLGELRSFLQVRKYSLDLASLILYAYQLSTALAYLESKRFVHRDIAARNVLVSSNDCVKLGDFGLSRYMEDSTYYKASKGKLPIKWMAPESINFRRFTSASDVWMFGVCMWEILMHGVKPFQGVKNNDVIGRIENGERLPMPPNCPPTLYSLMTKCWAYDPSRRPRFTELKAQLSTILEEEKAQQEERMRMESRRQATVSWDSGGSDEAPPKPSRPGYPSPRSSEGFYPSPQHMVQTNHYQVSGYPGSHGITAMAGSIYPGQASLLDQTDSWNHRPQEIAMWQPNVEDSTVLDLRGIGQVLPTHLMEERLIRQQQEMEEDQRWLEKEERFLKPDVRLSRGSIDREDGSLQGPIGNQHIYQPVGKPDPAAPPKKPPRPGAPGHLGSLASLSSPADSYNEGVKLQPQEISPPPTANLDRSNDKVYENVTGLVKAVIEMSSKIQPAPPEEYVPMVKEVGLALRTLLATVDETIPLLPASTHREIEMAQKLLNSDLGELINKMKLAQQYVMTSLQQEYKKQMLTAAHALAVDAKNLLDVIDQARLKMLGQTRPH

[31] = target: Tyrosine-protein kinase FRK (Homo sapiens) (UniProt P42685); details: Compound concentration 1000.0 nM
Chain of Tyrosine-protein kinase FRK (Homo sapiens) (P42685 whole entry): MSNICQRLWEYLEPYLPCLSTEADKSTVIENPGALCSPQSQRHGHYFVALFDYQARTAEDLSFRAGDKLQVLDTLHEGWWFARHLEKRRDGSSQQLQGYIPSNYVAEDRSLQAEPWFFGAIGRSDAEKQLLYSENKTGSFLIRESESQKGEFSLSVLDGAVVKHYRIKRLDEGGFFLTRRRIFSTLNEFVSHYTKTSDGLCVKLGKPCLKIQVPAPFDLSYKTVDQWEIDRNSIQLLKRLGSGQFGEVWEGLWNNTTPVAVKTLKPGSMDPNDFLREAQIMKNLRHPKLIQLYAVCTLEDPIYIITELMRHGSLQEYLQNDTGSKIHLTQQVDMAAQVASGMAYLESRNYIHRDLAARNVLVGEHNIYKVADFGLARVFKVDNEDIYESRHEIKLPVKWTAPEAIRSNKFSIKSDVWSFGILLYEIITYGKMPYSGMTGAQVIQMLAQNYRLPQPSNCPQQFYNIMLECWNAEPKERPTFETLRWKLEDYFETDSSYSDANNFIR

[32] = target: Mitogen-activated protein kinase 10 (Homo sapiens) (UniProt P53779); details: Compound concentration 1000.0 nM
Chain of Mitogen-activated protein kinase 10 (Homo sapiens) (P53779 whole entry, canonical isoform): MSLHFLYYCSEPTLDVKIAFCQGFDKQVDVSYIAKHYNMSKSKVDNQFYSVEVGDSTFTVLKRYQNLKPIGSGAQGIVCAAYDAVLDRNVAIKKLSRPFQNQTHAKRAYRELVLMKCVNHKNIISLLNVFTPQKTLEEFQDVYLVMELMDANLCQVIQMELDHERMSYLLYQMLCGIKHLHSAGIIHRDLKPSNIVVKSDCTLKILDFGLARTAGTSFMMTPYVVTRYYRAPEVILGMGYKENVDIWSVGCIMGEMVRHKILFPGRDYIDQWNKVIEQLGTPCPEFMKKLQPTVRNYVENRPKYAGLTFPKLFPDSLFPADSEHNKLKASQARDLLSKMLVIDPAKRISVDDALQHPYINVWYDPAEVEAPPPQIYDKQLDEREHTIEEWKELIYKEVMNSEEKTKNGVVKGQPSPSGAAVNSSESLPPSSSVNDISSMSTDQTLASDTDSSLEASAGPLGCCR

[33] = target: Phosphatidylinositol 4,5-bisphosphate 3-kinase catalytic subunit alpha isoform (Homo sapiens) (UniProt P42336); details: Compound concentration 1000.0 nM
Chain of Phosphatidylinositol 4,5-bisphosphate 3-kinase catalytic subunit alpha isoform (Homo sapiens) (P42336 whole entry, canonical isoform): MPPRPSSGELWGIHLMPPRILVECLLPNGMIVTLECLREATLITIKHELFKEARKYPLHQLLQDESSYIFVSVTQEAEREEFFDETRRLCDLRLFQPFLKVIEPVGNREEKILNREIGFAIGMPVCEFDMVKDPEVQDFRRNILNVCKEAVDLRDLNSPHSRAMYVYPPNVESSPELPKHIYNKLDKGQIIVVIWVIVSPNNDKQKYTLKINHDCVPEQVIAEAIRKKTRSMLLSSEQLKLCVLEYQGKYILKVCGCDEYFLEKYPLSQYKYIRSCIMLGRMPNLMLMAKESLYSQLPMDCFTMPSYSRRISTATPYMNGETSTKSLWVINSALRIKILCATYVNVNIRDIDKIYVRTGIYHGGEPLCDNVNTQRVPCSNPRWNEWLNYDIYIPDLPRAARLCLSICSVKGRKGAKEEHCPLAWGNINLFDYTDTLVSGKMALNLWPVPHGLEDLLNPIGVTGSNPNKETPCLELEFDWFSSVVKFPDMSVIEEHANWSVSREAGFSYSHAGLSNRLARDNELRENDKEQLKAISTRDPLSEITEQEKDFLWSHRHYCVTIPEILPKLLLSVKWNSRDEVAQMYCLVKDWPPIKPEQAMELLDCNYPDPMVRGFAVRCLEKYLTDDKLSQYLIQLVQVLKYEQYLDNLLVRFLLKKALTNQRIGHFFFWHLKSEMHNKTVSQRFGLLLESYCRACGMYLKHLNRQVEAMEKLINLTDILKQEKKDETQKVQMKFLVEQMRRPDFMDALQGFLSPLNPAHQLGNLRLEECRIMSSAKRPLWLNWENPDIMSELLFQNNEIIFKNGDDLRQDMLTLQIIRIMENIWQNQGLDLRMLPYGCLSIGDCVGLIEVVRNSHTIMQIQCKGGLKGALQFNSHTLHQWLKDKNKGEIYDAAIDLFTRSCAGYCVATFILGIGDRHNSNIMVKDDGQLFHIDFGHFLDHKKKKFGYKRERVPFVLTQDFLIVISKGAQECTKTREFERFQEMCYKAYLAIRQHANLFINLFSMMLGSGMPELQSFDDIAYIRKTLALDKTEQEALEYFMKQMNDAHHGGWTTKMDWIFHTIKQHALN

[34] = test system: Proto-oncogene tyrosine-protein kinase receptor Ret (Homo sapiens), P07949 [V804L]; details: Compound concentration 1000.0 nM
Chain of Proto-oncogene tyrosine-protein kinase receptor Ret (Homo sapiens), P07949 [V804L] (P07949 whole entry V804L): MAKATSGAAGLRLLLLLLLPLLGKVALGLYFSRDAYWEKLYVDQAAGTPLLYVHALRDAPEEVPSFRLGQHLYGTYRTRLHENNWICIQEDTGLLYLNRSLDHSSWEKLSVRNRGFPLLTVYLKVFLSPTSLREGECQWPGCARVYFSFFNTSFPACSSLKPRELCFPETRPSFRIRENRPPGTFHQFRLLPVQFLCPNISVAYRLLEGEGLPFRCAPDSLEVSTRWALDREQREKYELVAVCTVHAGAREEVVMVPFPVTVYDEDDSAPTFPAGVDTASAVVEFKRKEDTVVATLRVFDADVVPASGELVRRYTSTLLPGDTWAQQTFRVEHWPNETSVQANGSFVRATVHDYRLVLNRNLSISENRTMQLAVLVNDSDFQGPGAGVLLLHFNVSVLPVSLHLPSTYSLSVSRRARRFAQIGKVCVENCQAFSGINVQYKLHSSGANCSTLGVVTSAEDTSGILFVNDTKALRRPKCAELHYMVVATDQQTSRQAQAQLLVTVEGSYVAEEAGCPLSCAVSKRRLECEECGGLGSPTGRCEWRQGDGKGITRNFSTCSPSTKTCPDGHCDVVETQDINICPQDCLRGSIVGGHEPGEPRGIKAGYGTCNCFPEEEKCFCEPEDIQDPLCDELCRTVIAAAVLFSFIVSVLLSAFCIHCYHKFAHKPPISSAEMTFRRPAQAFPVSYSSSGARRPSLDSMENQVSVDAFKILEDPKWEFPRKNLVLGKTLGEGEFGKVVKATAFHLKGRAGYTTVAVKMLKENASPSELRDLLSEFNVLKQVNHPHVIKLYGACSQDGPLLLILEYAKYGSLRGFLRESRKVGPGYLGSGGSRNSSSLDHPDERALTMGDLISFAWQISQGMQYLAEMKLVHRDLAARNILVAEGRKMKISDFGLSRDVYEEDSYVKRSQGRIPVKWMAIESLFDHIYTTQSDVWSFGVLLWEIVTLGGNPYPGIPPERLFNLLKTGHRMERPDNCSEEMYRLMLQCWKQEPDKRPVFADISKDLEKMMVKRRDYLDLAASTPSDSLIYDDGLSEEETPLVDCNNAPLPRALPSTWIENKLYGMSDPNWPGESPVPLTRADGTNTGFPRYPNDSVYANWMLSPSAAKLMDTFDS

[35] = target: Serine/threonine-protein kinase TBK1 (Homo sapiens) (UniProt Q9UHD2); details: Compound concentration 1000.0 nM
[36] = target: TGF-beta receptor type-2 (Homo sapiens) (UniProt P37173); details: Compound concentration 1000.0 nM
Chain of TGF-beta receptor type-2 (Homo sapiens) (P37173 whole entry): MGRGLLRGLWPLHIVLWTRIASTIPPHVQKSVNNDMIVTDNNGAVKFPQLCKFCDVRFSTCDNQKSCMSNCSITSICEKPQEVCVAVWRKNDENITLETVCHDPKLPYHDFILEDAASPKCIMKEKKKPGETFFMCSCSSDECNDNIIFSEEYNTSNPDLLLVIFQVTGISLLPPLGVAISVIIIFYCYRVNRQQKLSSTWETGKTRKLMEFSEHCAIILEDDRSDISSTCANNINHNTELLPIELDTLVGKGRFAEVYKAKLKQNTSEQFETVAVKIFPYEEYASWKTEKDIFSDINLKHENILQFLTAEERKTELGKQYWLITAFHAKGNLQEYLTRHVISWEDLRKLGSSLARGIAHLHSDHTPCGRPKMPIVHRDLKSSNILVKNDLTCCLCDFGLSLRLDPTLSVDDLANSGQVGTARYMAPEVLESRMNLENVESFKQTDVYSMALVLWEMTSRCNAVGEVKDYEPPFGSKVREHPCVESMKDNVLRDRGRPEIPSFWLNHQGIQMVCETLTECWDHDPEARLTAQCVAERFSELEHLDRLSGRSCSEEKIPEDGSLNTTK

[37] = target: Histamine H2 receptor (Homo sapiens) (UniProt P25021); details: Compound concentration 10.0 uM
[38] = target: Calcium/calmodulin-dependent protein kinase kinase 1 (Homo sapiens) (UniProt Q8N5S9); details: Compound concentration 1000.0 nM
[39] = target: Beta-adrenergic receptor kinase 1 (Homo sapiens) (UniProt P25098); details: Compound concentration 1000.0 nM
[40] = target: Dual specificity mitogen-activated protein kinase kinase 5 (Homo sapiens) (UniProt Q13163); details: Compound concentration 1000.0 nM
[41] = target: Dual specificity mitogen-activated protein kinase kinase 6 (Homo sapiens) (UniProt P52564); details: Compound concentration 1000.0 nM
[42] = target: Serine/threonine-protein kinase D3 (Homo sapiens) (UniProt O94806); details: Compound concentration 1000.0 nM

CCC(=N\O)/C(C)=C/c1ccc(F)cc1 [A-079]
inactive: inhibition [1] -1% | inhibition [2] -9% | inhibition [3] 6% | inhibition [4] 2% | inhibition [5] 4% | inhibition [6] -3% | inhibition [7] 31% | inhibition [8] 23% | inhibition [9] 4% | inhibition [10] 17% | inhibition [11] -4% | inhibition [12] -3% | inhibition [13] 32% | inhibition [14] 8% | inhibition [15] 6% | inhibition [16] -1% | inhibition [17] 29% | inhibition [18] -8% | inhibition [19] 5% | inhibition [20] 1% | inhibition [21] 2% | inhibition [22] 8% | inhibition [23] 0% | inhibition [24] -5% | inhibition [25] -2% | inhibition [26] -1% | inhibition [27] 0% | inhibition [28] 43% | residual activity [29] 94% | residual activity [30] 82% | residual activity [31] 100% | residual activity [32] 100% | residual activity [33] 100% | residual activity [34] 100% | residual activity [35] 75% | residual activity [36] 74% | inhibition [37] 0.46%

CCC(=N\O)/C(C)=C/c1ccc(F)c(C)c1 [A-226]
inactive: residual activity [38] 100% | residual activity [29] 69% | residual activity [30] 100% | residual activity [31] 80% | residual activity [39] 100% | residual activity [32] 100% | residual activity [40] 86% | residual activity [41] 100% | residual activity [33] 100% | residual activity [42] 100% | residual activity [34] 97% | residual activity [35] 93% | residual activity [36] 97%
